Results: patent US20160263130A1, “PHARMACEUTICAL COMPOSITION FOR PREVENTING OR TREATING LIVER DISEASES, CONTAINING PLASMALOGEN PRECURSOR, PLASMALOGEN OR PLASMALOGEN ANALOG AS EFFECTIVE COMPONENT” (UNIVERSITY OF ULSAN FOUNDATION FOR INDUSTRY COOPERATION, priority 2013, published 2016)

Experiments:
Type in all cases: in vivo, C57/BL6 male mice
[1] = test system: mice treated with methionine-choline deficient diet (MCDD); assay: Liver histological observation (H&E, trichrome C), MCD diet mice; conditions: FIG. 4
Procedure: (§1) A methionine-choline deficient (MCD) feed to induce steatohepatitis was purchased from Dyets (Bethlehem, Pa., USA). Alkoxy glycerol (batyl alcohol), as a plasmalogen precursor, was purchased from Sigma (St Louis, Mo., USA).
(§2) 2% BSA was prepared in a DMEM:F12 medium, and plasmalogen precursor alkoxy glycerol dissolved in ethanol was added thereto After incubation at 70° C. for 20 minutes, the mixture was inoculated in a manner of observing crystal disappearance. 7-week-old C57/BL6 male mice were brought in to an experimental animal room, stabilized for 7 days, and then separated into a general feed group, as a control group, an MCD diet group (an MCDD group), and a group taken a mixture of MCD diet and 100 mg/kg/day of plasmalogen precursor alkoxy glycerol (an AG group), where each of the groups had six mice. The test feeds were taken for the total of 6 weeks, and the mice were allowed to only take water for the following 12 hours. Then, blood samples were obtained from the mice, and liver tissues were harvested from each of the mice. The harvested liver tissues were instantly rapid-frozen in dry ice and stored with plasma in a freezer at −70° C. […]
The segment was died with hematoxylin-eosin (H&E) and trichrome C, and examined and analyzed by using an optical microscope.

[2] = test system: mice that were allowed to take high fat diet (HFD); assay: High fat diet (HFD) hepatic steatosis animal model; conditions: HFD mixed with 200 mg/kg/day (AG-200), 12 weeks, FIG. 6
From the text: Although a MCDD animal model is a model that represents nonalcoholic steatohepatitis occurrence, the MCDD animal model cannot represent a risk factor that accompanies metabolic syndrome. In order to overcome such limitation, liver tissues of mice that were allowed to take high fat diet (HFD) as a general animal model with respect to hepatic steatosis were used for the comparison.
The animal model only had simple hepatic steatosis without inflammation unlike the MCDD group.
Alkoxy glycerol, as a plasmalogen precursor, was added to the HFD feed that induces obesity and non-alcoholic hepatic steatosis, and the feed was administrated to the animal model, and the change was confirmed.
First, the control group (CON) was prepared by allowing 7-week-old C57/BL6 male mice to take a general feed including 7% of fat, 18% of protein, and 75% of carbohydrate, and the HFD group was prepared by allowing 7-week-old C57/BL6 male mice to freely take a HFD feed including 60% of fat, 18% of protein, and 22% of carbohydrate.
Also, the AG group (AG-200) was allowed to take the HFD mixed with 200 mg/kg/day of alkoxy glycerol. The experimental groups were allowed to take the corresponding feeds for the total of 12 weeks, and liver histological changes in the livers were confirmed in the same manner in Example 4, and the plasma ALT levels were confirmed in the same manner as in Example 1.

[3] = test system: mice treated with methionine-choline deficient diet (MCDD); assay: Plasma ALT measurement in MCD diet steatohepatitis mice; conditions: MCD diet together with 100 mg/kg/day, 6 weeks, vs MCDD group, FIG. 1
Procedure: as §1
as §2, with “mice.” for “mice. The harvested liver tissues were instantly rapid-frozen in dry ice and stored with plasma in a freezer at −70° C.”
Blood samples were obtained from venae cavae of the experimental animals, the plasma was separated from the blood samples by using a centrifuge (at 300 rpm for 15 minutes), and alanine aminotransferase (ALT) of the plasma was measured by using a kit of Labs Biotechnology (London, Canada). […]

[4] = test system: mice treated with methionine-choline deficient diet (MCDD); assay: Neutral fats (triglyceride) in liver tissue of MCD diet mice; conditions: MCD diet together with 100 mg/kg/day, 6 weeks, FIG. 2
Procedure: as §1
as §2, with “mice.” for “mice. The harvested liver tissues were instantly rapid-frozen in dry ice and stored with plasma in a freezer at −70° C.”
Neutral fats in the liver tissue was measured by using a triglyceride (GPO-Trinder) kit purchased from Sigma. […] Then, a triglyceride reagent A was added thereto, allowed to react at room temperature for 5 minutes, and the measurement was performed by using an Emax precision micro plate reader (Molecular Devices, Sunnyvale, Calif.) at 540 nm.

[5] = test system: tumor necrosis factor (TNF-α) and monocyte chemotactic protein-1 (MCP-1) gene expression; assay: Inflammatory cytokine gene expression in liver tissue by real-time PCR, MCD diet mice; conditions: MCD diet with 100 mg/kg/day, 6 weeks, FIG. 3
Procedure: as §1
2% BSA was prepared in a DMEM:F12 medium, and plasmalogen precursor alkoxy glycerol dissolved in ethanol was added thereto After incubation at 70° C. for 20 minutes, the mixture was inoculated in a manner of observing crystal disappearance. 7-week-old C57/BL6 male mice were brought in to an experimental animal room, stabilized for 7 days, and then separated into a general feed group, as a control group, an MCD diet group (an MCDD group), and a group taken a mixture of MCD diet and 100 mg/kg/day of plasmalogen precursor alkoxy glycerol (an AG group), where each of the groups had six mice. The test feeds were taken for the total of 6 weeks, and the mice were allowed to only take water for the following 12 hours. Then, blood samples were obtained from the mice, and liver tissues were harvested from each of the mice. The harvested liver tissues were instantly rapid-frozen in dry ice and stored with plasma in a freezer at −70° C.
In order to confirm change in an inflammation degree of liver tissues, gene expression of a tumor necrosis factor (TNF-α) and monocyte chemotactic protein-1 (MCP-1), which are typical inflammatory cytokines, were confirmed by real-time PCR.

Question: What does the source list for `CCCCCCCCCCCCCCCCCCOCC(O)CO` (centres unmarked) [alkoxy glycerol, batyl alcohol]?
Answer: steatohepatitis, H&E and trichrome C histology ([1]; MCD diet with 100 mg/kg/day, 6 weeks): relieved to the similar level with that of the control group; liver fibrosis ([1]; MCDD together with alkoxy glycerol): significant improvement; hepatic steatosis occurrence (liver histology) [2]: significant improvement; lipid content in the liver tissues [2]: significant improvement; plasma ALT level [2]: remarkable reduction; change in plasma ALT [3]: significantly improvement; change in amount of neutral fats of liver tissues [4]: significantly improvement; expression of inflammatory cytokine genes (TNF-α, MCP-1) in liver tissue [5]: suppressed expression of inflammatory cytokine genes
